A word on the remaining activity: it is the signal under treatment as a percentage of the control signal.

These results are taken from patent publication US20230072421A1, “TARGETED RADIOPHARMACEUTICALS FOR THE DIAGNOSIS AND TREATMENT OF PROSTATE CANCER” (Bayer AS, priority 2019, published 2023).

In this experiment the target is T1, PSMA-expressing LNCaP cells (Homo sapiens, UniProt Q04609).
T1 construct: PSMA-expressing LNCaP cells; endogenous in cells; host or cells: LNCaP
Put plainly: Binding competition assay against 3H-PSMA-617 on LNCaP cells. The conditions noted are these: for competition against 3H-PSMA-617 on PSMA-expressing LNCaP cells (in words): comparison between examples. Put shortly: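 Compounds added to LNCaP cells in growth medium, 2 h at 37 °C, 5% CO2. After two ice-cold PBS washes, cells lysed in 0.3 M NaOH and bound radioactivity measured by liquid scintillation counting.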

The mark [1] stands for this setting: LNCaP cells, 10 nM 3H-PSMA-617, competing non-radiolabeled compound 10 nM, 2 h at 37° C., triplicates.
[2] abbreviates: LNCaP cells, 10 nM 3H-PSMA-617, competing non-radiolabeled compound 100 nM, 2 h at 37° C., triplicates.

T1 sequence (Q04609 whole entry): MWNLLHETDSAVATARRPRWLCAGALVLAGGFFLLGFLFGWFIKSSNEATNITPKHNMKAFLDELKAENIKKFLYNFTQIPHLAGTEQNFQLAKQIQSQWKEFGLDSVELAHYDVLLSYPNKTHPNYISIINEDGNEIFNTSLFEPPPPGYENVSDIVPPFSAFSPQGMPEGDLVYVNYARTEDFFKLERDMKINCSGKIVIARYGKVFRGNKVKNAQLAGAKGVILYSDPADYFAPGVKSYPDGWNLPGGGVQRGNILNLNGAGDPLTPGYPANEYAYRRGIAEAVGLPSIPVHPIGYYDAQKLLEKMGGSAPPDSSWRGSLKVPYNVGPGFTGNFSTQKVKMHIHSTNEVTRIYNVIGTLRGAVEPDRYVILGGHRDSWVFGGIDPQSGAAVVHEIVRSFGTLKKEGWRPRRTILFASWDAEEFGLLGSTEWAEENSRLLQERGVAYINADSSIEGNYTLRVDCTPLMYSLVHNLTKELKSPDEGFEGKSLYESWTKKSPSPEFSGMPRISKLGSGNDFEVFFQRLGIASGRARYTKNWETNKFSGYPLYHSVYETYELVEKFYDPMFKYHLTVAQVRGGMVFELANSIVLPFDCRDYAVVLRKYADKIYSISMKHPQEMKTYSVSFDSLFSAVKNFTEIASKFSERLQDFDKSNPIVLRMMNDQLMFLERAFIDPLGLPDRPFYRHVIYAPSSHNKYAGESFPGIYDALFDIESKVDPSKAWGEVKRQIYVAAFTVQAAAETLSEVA

For `NCC1CCC(C(=O)N[C@@H](CCCNC(N)=O)C(=O)NCCCC[C@H](NC(=O)N[C@@H](CCC(=O)O)C(=O)O)C(=O)O)CC1` (stereo partly drawn) [Example 4-A, N^6—{N^2-[(1r,4S)-4-(aminomethyl)cyclohexane-1-carbonyl]-N^5-carbamoyl-L-ornithyl}-N^2-{[(1S)-1,3-dicarboxypropyl]carbamoyl}-L-lysine], the remaining activity at 0.01 µM under setting [1] is 106%. Also, the remaining activity at 0.1 µM under setting [2] was found to be 112%.

For the compound `NC[C@H]1CC[C@H](C(=O)N[C@@H](Cc2ccc3ccccc3c2Br)C(=O)NCCCC[C@H](NC(=O)N[C@@H](CCC(=O)O)C(=O)O)C(=O)O)CC1` [Example 14-A, (3S,10S,14S)-1-[(1r,4S)-4-(aminomethyl)cyclohexyl]-3-[(1-bromonaphthalen-2-yl)methyl]-1,4,12-trioxo-2,5,11,13-tetraazahexadecane-10,14,16-tricarboxylic acid], the remaining activity at 0.01 µM under setting [1] amounted to 187%. Besides, the remaining activity at 0.1 µM under setting [2] was found to be 129%.

As to `O=C(O)CC[C@H](NC(=O)N[C@@H](CCCCNC(=O)[C@H](Cc1ccc2ccccc2c1)NC(=O)[C@H]1CC[C@H](CNC(=O)CN2CCN(CC(=O)O)CCN(CC(=O)O)CCN(CC(=O)O)CC2)CC1)C(=O)O)C(=O)O` [Example 1-B, (3S,10S,14S)-3-[(naphthalen-2-yl)methyl]-1,4,12-trioxo-1-[(1r,4S)-4-({2-[4,7,10-tris(carboxymethyl)-1,4,7,10-tetraazacyclododecan-1-yl]acetamido}methyl)cyclohexyl]-2,5,11,13-tetraazahexadecane-10,14,16-tricarboxylic acid, reference compound], the remaining activity at 0.01 µM under setting [1] amounted to 66%. Further, the remaining activity at 0.1 µM under setting [2] is 17%.

For `O=C(O)CC[C@H](NC(=O)N[C@@H](CCCCNC(=O)[C@H](Cc1ccc2ccccc2n1)NC(=O)[C@H]1CC[C@H](CNC(=O)CN2CCN(CC(=O)O)CCN(CC(=O)O)CCN(CC(=O)O)CC2)CC1)C(=O)O)C(=O)O` [Example 17-B, N^6-{3-(quinolin-2-yl)-N-[(1r,4S)-4-({2-[4,7,10-tris(carboxymethyl)-1,4,7,10-tetraazacyclododecan-1-yl]acetamido}methyl)cyclohexane-1-carbonyl]-L-alanyl}-N^2-{[(1S)-1,3-dicarboxypropyl]carbamoyl}-L-lysine], the “competition against 3H-PSMA-617 on PSMA-expressing LNCaP cells (in words)” value is listed as “best competition amongst all quinoline isomer examples”. The remaining activity at 0.01 µM under setting [1] is 55%. Moreover, the remaining activity at 0.1 µM under setting [2] was determined as 12%.

Consider `NC[C@H]1CC[C@H](C(=O)N[C@@H](Cc2ccc(-c3ccccc3)cc2)C(=O)NCCCC[C@H](NC(=O)N[C@@H](CCC(=O)O)C(=O)O)C(=O)O)CC1` [Example 11a-A, (3S,10S,14S)-1-[(1r,4S)-4-(aminomethyl)cyclohexyl]-3-[([1,1′-biphenyl]-4-yl)methyl]-1,4,12-trioxo-2,5,11,13-tetraazahexadecane-10,14,16-tricarboxylic acid], for which the remaining activity at 0.01 µM under setting [1] stood at 110%. Also, the remaining activity at 0.1 µM under setting [2] was found to be 103%.

On to `Cc1cc(C(=O)NCCN(CCCN(CCNC(=O)c2cc(C)n(CC(=O)O)c(=O)c2O)CCNC(=O)c2cc(C)n(CC(=O)NCc3ccc(C(=O)N[C@@H](Cc4ccc5ccccc5n4)C(=O)NCCCC[C@H](NC(=O)N[C@@H](CCC(=O)O)C(=O)O)C(=O)O)nc3)c(=O)c2O)CCNC(=O)c2cc(C)n(CC(=O)NCc3ccc(C(=O)NC(Cc4ccc5ccccc5n4)C(=O)NCCCC[C@H](NC(=O)N[C@@H](CCC(=O)O)C(=O)O)C(=O)O)nc3)c(=O)c2O)c(O)c(=O)n1CC(=O)O` (stereo partly drawn) [34-C dimer, (3S,10S,14S,3'S,10'S,14'S)-1,1′-(propane-1,3-diylbis{[(2-{[1-(carboxymethyl)-3-hydroxy-6-methyl-2-oxo-1,2-dihydropyridine-4-carbonyl]amino}ethyl)azanediyl]ethane-2,1-diylcarbamoyl(3-hydroxy-6-methyl-2-oxopyridine-4,1(2H)-diyl)(1-oxoethane-2,1-diyl)azanediylmethylenepyridine-5,2-diyl})bis{1,4,12-trioxo-3-[(quinolin-2-yl)methyl]-2,5,11,13-tetraazahexadecane-10,14,16-tricarboxylic acid}], for which, under setting [1], the remaining activity at 0.01 µM amounted to 42%. The remaining activity at 0.1 µM under setting [2] is 7%.

As for `O=C(O)CC[C@H](NC(=O)N[C@@H](CCCCNC(=O)[C@@H](Cc1ccc2cccnc2c1)NC(=O)[C@H]1CC[C@H](CNC(=O)CN2CCN(CC(=O)O)CCN(CC(=O)O)CCN(CC(=O)O)CC2)CC1)C(=O)O)C(=O)O` [Example 45-B, (3R,10S,14S)-1,4,12-trioxo-3-[(quinolin-7-yl)methyl]-1-[(1r,4S)-4-({2-[4,7,10-tris(carboxymethyl)-1,4,7,10-tetraazacyclododecan-1-yl]acetamido}methyl)cyclohexyl]-2,5,11,13-tetraazahexadecane-10,14,16-tricarboxylic acid], the remaining activity at 0.01 µM under setting [1] amounted to 90%. The remaining activity at 0.1 µM under setting [2] is 47%.

For `NCc1ccc(C(=O)N[C@@H](Cc2cnc3ccccc3c2)C(=O)NCCCC[C@H](NC(=O)N[C@@H](CCC(=O)O)C(=O)O)C(=O)O)nc1` [Example 32-A, N^6—{N-[5-(aminomethyl)pyridine-2-carbonyl]-3-(quinolin-3-yl)-L-alanyl}-N^2-{[(1S)-1,3-dicarboxypropyl]carbamoyl}-L-lysine], under setting [1], the remaining activity at 0.01 µM was found to be 84%. Besides, the remaining activity at 0.1 µM under setting [2] was found to be 46%.

With `COc1ccc(CC(NC(=O)[C@H]2CC[C@H](CN)CC2)C(=O)NCCCC[C@H](NC(=O)N[C@@H](CCC(=O)O)C(=O)O)C(=O)O)cc1OC` (stereo partly drawn) [Example 19-A, N^6—{N-[(1r,4S)-4-(aminomethyl)cyclohexane-1-carbonyl]-3-methoxy-O-methyl-L-tyrosyl}-N^2-{[(1S)-1,3-dicarboxypropyl]carbamoyl}-L-lysine], the remaining activity at 0.01 µM under setting [1] was 84%. The remaining activity at 0.1 µM under setting [2] was determined as 79%.

Take `O=C(O)CC[C@H](NC(=O)N[C@@H](CCCCNC(=O)[C@H](Cc1ccc2ccccc2c1)NC(=O)[C@H]1CC[C@H](CNC(=O)C[N+]23CC[N+]45CC[N+]67CC[N+]8(CC2)CC(=O)[O][Th]3486([O]C(=O)C5)[O]C(=O)C7)CC1)C(=O)O)C(=O)O` (stereo partly shown) [Example 1-B-232Th, {3-[(naphthalen-2-yl)methyl]-1,4,12-trioxo-1-{4-[(2-{4,7,10-tris[(carboxy-kappaO)methyl]-1,4,7,10-tetraazacyclododecan-1-yl-kappa^4N^1,N^4,N^7,N^10}acetamido)methyl]cyclohexyl}-2,5,11,13-tetraazahexadecane-10,14,16-tricarboxylato(4−)}thorium(3+)]: the “% remaining 3H-PSMA-617 @ 10 nM (mean)” value under setting [1] is recorded as 71%. For the same compound, the “% remaining 3H-PSMA-617 @ 100 nM (mean)” value under setting [2] turned out to be 12%.

For the compound `NC[C@H]1CC[C@H](C(=O)N[C@@H](Cc2ccc(O)cc2)C(=O)NCCCC[C@H](NC(=O)N[C@@H](CCC(=O)O)C(=O)O)C(=O)O)CC1` [Example 15-A, N^6—{N-[(1r,4S)-4-(aminomethyl)cyclohexane-1-carbonyl]-L-tyrosyl}-N^2-{[(1S)-1,3-dicarboxypropyl]carbamoyl}-L-lysine], the remaining activity at 0.01 µM under setting [1] came out at 133%. Also, under setting [2], the remaining activity at 0.1 µM turned out to be 111%.

On to `O=C(O)CC[C@H](NC(=O)N[C@@H](CCCCNC(=O)[C@H](Cc1ccc2ccccc2n1)NC(=O)c1ccc(CNC(=O)CN2CCN(CC(=O)O)CCN(CC(=O)O)CCN(CC(=O)O)CC2)cn1)C(=O)O)C(=O)O` [Example 34-B, N^6-{3-(quinolin-2-yl)-N-[5-({2-[4,7,10-tris(carboxymethyl)-1,4,7,10-tetraazacyclododecan-1-yl]acetamido}methyl)pyridine-2-carbonyl]-L-alanyl}-N^2-{[(1S)-1,3-dicarboxypropyl]carbamoyl}-L-lysine], for which the “competition against 3H-PSMA-617 on PSMA-expressing LNCaP cells (in words)” value was “improved competition”. Besides, under setting [1], the remaining activity at 0.01 µM was determined as 43%. Moreover, the remaining activity at 0.1 µM under setting [2] was found to be 6%.

Regarding `NC[C@H]1CC[C@H](C(=O)N[C@@H](Cc2cccc(F)c2)C(=O)NCCCC[C@H](NC(=O)N[C@@H](CCC(=O)O)C(=O)O)C(=O)O)CC1` [Example 10-A, N^6—{N-[(1r,4S)-4-(aminomethyl)cyclohexane-1-carbonyl]-3-fluoro-L-phenylalanyl}-N^2-{[(1S)-1,3-dicarboxypropyl]carbamoyl}-L-lysine], the remaining activity at 0.01 µM under setting [1] amounted to 91%. In addition, under setting [2], the remaining activity at 0.1 µM was 60%.

For the compound `CNc1cc(C[C@@H](NC(=O)[C@H]2CC[C@H](CNC(=O)CN3CCN(CC(=O)O)CCN(CC(=O)O)CCN(CC(=O)O)CC3)CC2)C(=O)NCCCC[C@H](NC(=O)N[C@@H](CCC(=O)O)C(=O)O)C(=O)O)cc2ccccc12` [Example 37-B, (3R,10S,14S)-3-{[4-(methylamino)naphthalen-2-yl]methyl}-1,4,12-trioxo-1-[(1r,4S)-4-({2-[4,7,10-tris(carboxymethyl)-1,4,7,10-tetraazacyclododecan-1-yl]acetamido}methyl)cyclohexyl]-2,5,11,13-tetraazahexadecane-10,14,16-tricarboxylic acid], the remaining activity at 0.01 µM under setting [1] was found to be 55%. For the same compound, under setting [2], the remaining activity at 0.1 µM was 11%.

For `NC[C@H]1CC[C@H](C(=O)N[C@@H](Cc2ccc(F)cc2)C(=O)NCCCC[C@H](NC(=O)N[C@@H](CCC(=O)O)C(=O)O)C(=O)O)CC1` [Example 7-A, N^6—{N-[(1r,4S)-4-(aminomethyl)cyclohexane-1-carbonyl]-4-fluoro-L-phenylalanyl}-N^2-{[(1S)-1,3-dicarboxypropyl]carbamoyl}-L-lysine], under setting [1], the remaining activity at 0.01 µM was 106%. The remaining activity at 0.1 µM under setting [2] was 93%.

In the case of `NC[C@H]1CC[C@H](C(=O)N[C@@H](Cc2ccc(Br)cn2)C(=O)NCCCC[C@H](NC(=O)N[C@@H](CCC(=O)O)C(=O)O)C(=O)O)CC1` [Example 31-A, N^6—{N-[(1r,4S)-4-(aminomethyl)cyclohexane-1-carbonyl]-3-(5-bromopyridin-2-yl)-L-alanyl}-N^2-{[(1S)-1,3-dicarboxypropyl]carbamoyl}-L-lysine], the remaining activity at 0.01 µM under setting [1] turned out to be 61%. Moreover, the remaining activity at 0.1 µM under setting [2] worked out at 78%.
